Consider one compound from patent US20150202304A1, “ENCAPSULATION OF IMMISCIBLE PHASES IN SILK FIBROIN BIOMATERIALS” (TUFTS UNIVERSITY, priority 2012, published 2015).

The nature of this data set: Release of adenosine from dissolvable silk films in PBS. The data set is classed as physicochemical. The settings on record: within 15 minutes of exposure to 37° C. PBS; ~0.5, 0.25 or 0.125 mg adenosine per 0.2 mm^2 film. As to the method: Rapid dissolution of films loaded with a dye and release of the dye from the films occur when the films are immersed in ˜37° C. buffer (FIG. 10). Dissolvable silk films loaded with an active agent (e.g., ˜0.5, 0.25 or 0.125 mg of adenosine per 0.2 mm^2 film) released the majority of the drug load (approx. 80%) within 15 minutes of exposure to 37° C. phosphate buffered saline (PBS) (Data not shown).

Structures are written as SMILES.

`Nc1ncnc2c1ncn2[C@@H]1O[C@H](CO)[C@@H](O)[C@H]1O` [adenosine]: the “drug load released from dissolvable silk films” value is reported as “approx. 80%”.
